Laboratory results from publication PMC10638516 (Acta Pharmaceutica Sinica. B, 2023).

Experiments:
hERG channel = hERG channel (Homo sapiens, UniProt Q12809); experiment: hERG channel automated patch clamp; assay type: cell-based
PC12 cells = experiment: CCK8 cytotoxicity test, PC12; assay type: cell-based; details: 24 h
hα1 = assay type: binding, rat; details: read-out: Ki hα1; Table 6 selectivity profile
h5-HT2A = h5-HT2A (Homo sapiens, UniProt P28223); experiment: biochemical; assay type: binding
Sequence of h5-HT2A (P28223 whole entry): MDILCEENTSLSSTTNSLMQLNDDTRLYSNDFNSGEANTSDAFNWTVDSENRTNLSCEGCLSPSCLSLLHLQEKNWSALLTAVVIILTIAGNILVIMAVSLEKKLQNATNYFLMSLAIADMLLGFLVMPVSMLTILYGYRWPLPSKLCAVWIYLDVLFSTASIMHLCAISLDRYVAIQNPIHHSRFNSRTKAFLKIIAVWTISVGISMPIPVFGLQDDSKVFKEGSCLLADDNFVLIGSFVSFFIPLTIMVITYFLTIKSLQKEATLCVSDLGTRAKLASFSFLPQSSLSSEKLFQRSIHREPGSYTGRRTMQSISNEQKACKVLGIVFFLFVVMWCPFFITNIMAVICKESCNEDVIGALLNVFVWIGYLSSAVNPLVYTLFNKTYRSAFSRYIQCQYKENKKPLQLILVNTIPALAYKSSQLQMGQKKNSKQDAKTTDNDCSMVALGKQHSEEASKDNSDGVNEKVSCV

hSERT = hSERT (Homo sapiens, UniProt P31645); experiment: biochemical; assay type: binding
Sequence of hSERT (P31645 whole entry): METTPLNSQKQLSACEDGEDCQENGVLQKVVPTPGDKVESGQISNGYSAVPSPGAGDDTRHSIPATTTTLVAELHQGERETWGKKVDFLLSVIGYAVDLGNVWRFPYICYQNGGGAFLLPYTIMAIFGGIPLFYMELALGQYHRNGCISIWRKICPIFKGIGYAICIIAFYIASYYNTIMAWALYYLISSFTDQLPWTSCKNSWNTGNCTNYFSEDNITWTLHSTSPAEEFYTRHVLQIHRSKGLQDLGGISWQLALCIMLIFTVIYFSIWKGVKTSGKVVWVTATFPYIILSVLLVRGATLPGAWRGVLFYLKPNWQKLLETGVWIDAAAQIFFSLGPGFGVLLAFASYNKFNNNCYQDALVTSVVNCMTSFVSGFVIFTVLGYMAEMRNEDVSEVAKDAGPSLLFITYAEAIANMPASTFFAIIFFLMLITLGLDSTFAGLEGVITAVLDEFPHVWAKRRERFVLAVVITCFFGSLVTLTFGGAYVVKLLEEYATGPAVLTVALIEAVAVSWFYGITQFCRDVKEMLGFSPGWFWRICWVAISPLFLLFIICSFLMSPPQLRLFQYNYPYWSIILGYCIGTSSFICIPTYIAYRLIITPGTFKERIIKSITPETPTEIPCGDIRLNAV

hD5 = hD5 (Homo sapiens, UniProt P21918); experiment: biochemical; assay type: binding
Sequence of hD5 (P21918 whole entry): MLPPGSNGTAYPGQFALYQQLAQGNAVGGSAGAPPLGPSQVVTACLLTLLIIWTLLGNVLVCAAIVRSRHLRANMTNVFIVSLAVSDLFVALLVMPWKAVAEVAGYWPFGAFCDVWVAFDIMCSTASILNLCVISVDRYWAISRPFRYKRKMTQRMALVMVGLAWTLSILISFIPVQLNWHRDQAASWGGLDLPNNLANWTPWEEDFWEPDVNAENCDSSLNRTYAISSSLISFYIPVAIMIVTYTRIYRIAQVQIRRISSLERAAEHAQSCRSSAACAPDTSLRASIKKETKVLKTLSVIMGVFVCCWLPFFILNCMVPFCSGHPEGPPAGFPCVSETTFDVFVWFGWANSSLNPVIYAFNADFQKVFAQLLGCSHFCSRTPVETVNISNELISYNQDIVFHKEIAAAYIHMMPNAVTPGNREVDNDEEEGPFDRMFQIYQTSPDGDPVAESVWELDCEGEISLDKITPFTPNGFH

hD2R [1] = target: T1, hD2R (Homo sapiens, UniProt P14416); experiment: biochemical; assay type: binding; details: for inhibition at 10 µM: read-out: % inhibition at 10 μmol/L hD2
T1 sequence (P14416 whole entry): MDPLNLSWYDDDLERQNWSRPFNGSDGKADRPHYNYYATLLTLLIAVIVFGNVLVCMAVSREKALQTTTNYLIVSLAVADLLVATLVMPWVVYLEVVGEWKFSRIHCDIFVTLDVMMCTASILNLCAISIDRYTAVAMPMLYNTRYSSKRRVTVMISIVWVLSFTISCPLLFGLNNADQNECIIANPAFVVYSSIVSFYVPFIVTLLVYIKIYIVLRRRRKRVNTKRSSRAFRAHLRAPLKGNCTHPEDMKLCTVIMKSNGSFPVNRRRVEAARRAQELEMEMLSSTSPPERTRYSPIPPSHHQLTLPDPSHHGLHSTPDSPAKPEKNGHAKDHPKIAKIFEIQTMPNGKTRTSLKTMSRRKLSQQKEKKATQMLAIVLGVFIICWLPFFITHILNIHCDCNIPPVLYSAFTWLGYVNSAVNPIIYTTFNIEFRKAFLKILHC

hD2R [2] = target: T1, hD2R; assay type: cell-based
[3] = BBB penetration study in ICR mice; assay type: in vivo, mouse
hD3R [4] = target: T2, hD3R (Homo sapiens, UniProt P35462); experiment: ERK1/2 phosphorylation; assay type: cell-based; details: for effect on ERK1/2 phosphorylation mediated by hD3R, compound alone (agonist mode): CHO-hD3R cells, quinpirole at 20 μmol/L; for competitive antagonism of ERK1/2 phosphorylation mediated by D3R: in the presence of 20 μmol/L dopamine
T2 sequence (P35462 whole entry): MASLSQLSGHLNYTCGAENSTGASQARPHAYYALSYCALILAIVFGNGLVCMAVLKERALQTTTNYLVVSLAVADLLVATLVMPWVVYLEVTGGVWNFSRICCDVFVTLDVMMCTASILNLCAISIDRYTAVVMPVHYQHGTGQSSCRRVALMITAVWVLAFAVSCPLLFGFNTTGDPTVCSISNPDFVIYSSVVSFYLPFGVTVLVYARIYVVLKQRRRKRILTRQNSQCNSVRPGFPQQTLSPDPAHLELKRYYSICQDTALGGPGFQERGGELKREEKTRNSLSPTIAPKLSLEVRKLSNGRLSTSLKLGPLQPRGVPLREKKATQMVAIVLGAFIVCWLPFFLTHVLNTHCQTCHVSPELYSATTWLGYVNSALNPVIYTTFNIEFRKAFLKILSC

ICR mice [5] = experiment: Apomorphine-induced climbing; assay type: in vivo, mouse; details: i.p., apomorphine 1.0 mg/kg s.c.
h5-HT6 = h5-HT6 (Homo sapiens, UniProt P50406); experiment: biochemical; assay type: binding
hDAT = hDAT (Rattus norvegicus, UniProt P23977); experiment: biochemical; assay type: binding; details: Table 6 selectivity profile
h5-HT1A = h5-HT1A (Homo sapiens, UniProt P08908); experiment: biochemical; assay type: binding
hH1 = hH1 (Cavia porcellus, UniProt P31389); experiment: biochemical; assay type: binding, guinea pig
Sequence of hH1 (P31389 whole entry): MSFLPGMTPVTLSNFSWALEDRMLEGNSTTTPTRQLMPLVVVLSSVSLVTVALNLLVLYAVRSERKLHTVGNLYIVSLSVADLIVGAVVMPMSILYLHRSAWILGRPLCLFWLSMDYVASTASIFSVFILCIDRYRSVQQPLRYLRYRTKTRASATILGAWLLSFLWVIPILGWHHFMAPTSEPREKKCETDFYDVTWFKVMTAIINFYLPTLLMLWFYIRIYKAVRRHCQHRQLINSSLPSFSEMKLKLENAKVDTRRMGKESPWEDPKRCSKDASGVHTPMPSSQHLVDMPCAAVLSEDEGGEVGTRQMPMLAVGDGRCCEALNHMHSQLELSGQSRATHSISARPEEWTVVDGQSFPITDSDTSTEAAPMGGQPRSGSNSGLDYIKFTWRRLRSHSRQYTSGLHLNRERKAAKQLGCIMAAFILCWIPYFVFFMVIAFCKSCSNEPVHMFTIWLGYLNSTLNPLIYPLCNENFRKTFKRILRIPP

hD1 = hD1 (Homo sapiens, UniProt P21728); experiment: biochemical; assay type: binding
Sequence of hD1 (P21728 whole entry): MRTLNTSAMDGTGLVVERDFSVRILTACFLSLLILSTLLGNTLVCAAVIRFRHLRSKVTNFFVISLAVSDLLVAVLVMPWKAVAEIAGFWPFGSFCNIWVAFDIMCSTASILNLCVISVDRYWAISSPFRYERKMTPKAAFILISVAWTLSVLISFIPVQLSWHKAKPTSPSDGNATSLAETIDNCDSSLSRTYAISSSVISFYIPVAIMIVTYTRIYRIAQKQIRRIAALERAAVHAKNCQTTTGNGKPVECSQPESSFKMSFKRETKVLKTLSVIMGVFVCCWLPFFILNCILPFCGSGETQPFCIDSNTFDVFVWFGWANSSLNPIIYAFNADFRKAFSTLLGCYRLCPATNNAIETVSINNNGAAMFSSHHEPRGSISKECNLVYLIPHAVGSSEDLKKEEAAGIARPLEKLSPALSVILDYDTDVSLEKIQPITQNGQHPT

mice [6] = experiment: Serum prolactin after repeated oral dosing; assay type: in vivo, mouse; details: after 30 days p.o. dosing, 23j, 36b 30 mg/kg, RPD 1 mg/kg
hNET = hNET (Homo sapiens, UniProt P23975); experiment: biochemical; assay type: binding
hD4 = hD4 (Homo sapiens, UniProt P21917); experiment: biochemical; assay type: binding
Sequence of hD4 (P21917 whole entry): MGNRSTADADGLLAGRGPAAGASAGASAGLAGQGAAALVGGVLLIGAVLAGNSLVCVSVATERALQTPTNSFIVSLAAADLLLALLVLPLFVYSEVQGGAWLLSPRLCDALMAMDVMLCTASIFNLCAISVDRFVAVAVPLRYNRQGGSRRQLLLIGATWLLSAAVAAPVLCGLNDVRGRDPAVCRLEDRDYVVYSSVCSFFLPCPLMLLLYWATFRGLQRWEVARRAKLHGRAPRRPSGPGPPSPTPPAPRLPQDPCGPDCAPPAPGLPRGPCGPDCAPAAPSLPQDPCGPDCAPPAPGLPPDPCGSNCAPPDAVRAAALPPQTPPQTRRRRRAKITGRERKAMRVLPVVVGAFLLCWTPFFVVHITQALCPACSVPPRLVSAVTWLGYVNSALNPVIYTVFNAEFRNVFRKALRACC

h5-HT2C = h5-HT2C (Rattus norvegicus, UniProt P08909); experiment: biochemical; assay type: binding; details: Table 6 selectivity profile
hD3R [7] = target: T2, hD3R; experiment: biochemical; assay type: binding; details: for inhibition at 10 µM: read-out: % inhibition at 10 μmol/L hD3, 10 μmol/L test compound
[8] = Weight gain on repeated oral dosing; assay type: in vivo, mouse; details: mice, p.o. once daily 30 days; 23j, 36b 30 mg/kg; RPD 1 mg/kg
mice [9] = experiment: Catalepsy test in mice; assay type: in vivo, mouse; details: for Catalepsy peak effect (percent of cataleptic animals) / catalepsy under all tested doses: i.p.; for catalepsy under all tested doses: 23j up to 240 mg/kg, 36a/b/f up to 480 mg/kg
ICR mice [10] = experiment: Spontaneous locomotor test; details: compounds 30 mg/kg i.p., RPD 1 mg/kg, 15 min
h5-HT1B = h5-HT1B (Homo sapiens, UniProt P28222); experiment: biochemical; assay type: binding
mice [11] = experiment: Acute toxicity assay in mice; assay type: in vivo, mouse; details: i.p., up to 600 mg/kg
[12] = Pharmacokinetics study in ICR mice; assay type: in vivo, mouse; details: for half-life: t1/2, ICR mice
ICR mice [13] = experiment: MK-801-induced hyperactivity; details: 3 mg/kg i.p.
HEK293T cells = experiment: CCK8 cytotoxicity test, HEK293T; assay type: cell-based; details: 24 h, CCK8, compared with RPD
BV2 cells = experiment: CCK8 cytotoxicity test, BV2; assay type: cell-based; details: 24 h, CCK8, compared with RPD
ICR mice [14] = experiment: Tail suspension test; assay type: in vivo, mouse; details: 36b 3, 10, 30 mg/kg, DLX 15 mg/kg
ICR mice [15] = experiment: Forced swimming test; assay type: in vivo, mouse; details: 36b 3, 10, 30 mg/kg, DLX 15 mg/kg
[16] = hERG inhibition IC50, patch clamp, tested three times
[17] = Ki hD3, three experiments, means ± SEM
[18] = ICR, mouse, plasma, iv, 3 mg/kg
[19] = ICR, mouse, plasma, po, 10 mg/kg

Sequence of hERG channel (Q12809 whole entry): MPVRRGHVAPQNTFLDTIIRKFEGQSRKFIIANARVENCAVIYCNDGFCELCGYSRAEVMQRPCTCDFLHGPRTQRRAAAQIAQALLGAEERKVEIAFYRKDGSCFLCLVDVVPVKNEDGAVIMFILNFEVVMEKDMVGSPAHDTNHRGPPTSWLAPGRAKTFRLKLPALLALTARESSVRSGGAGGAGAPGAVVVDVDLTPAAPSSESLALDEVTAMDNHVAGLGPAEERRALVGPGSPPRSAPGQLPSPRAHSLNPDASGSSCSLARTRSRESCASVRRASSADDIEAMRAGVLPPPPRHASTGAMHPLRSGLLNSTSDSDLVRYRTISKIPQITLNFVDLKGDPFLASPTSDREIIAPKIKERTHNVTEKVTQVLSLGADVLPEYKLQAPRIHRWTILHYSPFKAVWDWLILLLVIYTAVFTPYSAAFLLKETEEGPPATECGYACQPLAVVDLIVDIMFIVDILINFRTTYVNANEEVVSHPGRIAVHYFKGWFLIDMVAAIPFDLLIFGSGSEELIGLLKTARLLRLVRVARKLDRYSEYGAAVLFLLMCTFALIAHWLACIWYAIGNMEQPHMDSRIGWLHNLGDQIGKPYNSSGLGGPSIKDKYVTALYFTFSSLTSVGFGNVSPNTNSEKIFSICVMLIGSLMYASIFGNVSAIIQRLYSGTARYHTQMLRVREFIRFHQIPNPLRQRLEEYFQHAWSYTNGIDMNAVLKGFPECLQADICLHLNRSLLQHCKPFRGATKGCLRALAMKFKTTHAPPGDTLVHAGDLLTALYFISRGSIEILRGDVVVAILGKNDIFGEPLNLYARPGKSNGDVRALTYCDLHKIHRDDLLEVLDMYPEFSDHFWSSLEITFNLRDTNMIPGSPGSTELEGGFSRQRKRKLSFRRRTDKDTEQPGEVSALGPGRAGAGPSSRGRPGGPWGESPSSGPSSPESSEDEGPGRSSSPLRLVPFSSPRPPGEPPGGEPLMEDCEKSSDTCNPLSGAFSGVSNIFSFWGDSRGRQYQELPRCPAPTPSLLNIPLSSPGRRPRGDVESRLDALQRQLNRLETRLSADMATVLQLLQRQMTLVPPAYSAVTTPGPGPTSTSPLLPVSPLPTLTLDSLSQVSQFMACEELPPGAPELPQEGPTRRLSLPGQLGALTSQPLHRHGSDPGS

CCn1c2ccccc2c2cc(CNCCCCNC(=O)c3ccc(-c4cccnc4)cc3)ccc21 [23j]
IC50 (hERG channel; [16]): 2.46 µM
cytotoxicity in PC12 cells (PC12 cells): significant cytotoxicity at high concentrations
Ki (hα1): 8.35 µM
Ki (h5-HT2A): 0.214 µM
Ki (hSERT): 5.41 µM
Ki (hD5): > 10 µM
Ki (hD2R [1]): > 10 µM
inhibition at 10 µM (hD2R [1]): 12.4 ± 5.8%
effect on ERK1/2 phosphorylation mediated by hD2R, compound alone (agonist mode) (hD2R [2]): weak partial agonism
Brain/plasma ratio at 2.0 h ([3]; 3 mg/kg i.v., 3 mg/kg): 1.60
Brain concentration at 0.5 h ([3]; 10 mg/kg p.o.): too low to test
concentration at 0.5 h ([3]; ICR, mouse, brain, iv, 3 mg/kg, Brain concentration at 0.5 h, 3 mg/kg i.v.): 98 ng/mL
concentration at 2 h ([3]; ICR, mouse, brain, iv, 3 mg/kg, Brain concentration at 2.0 h, 3 mg/kg i.v.): 11.5 ng/mL
Kp at 0.5 h ([3]; ICR, mouse, brain, iv, 3 mg/kg, Brain/plasma ratio at 0.5 h, 3 mg/kg i.v.): 0.55
concentration at 0.5 h ([3]; ICR, mouse, plasma, iv, 3 mg/kg, Plasma concentration at 0.5 h, 3 mg/kg i.v.): 180 ng/mL
concentration at 2 h ([3]; ICR, mouse, plasma, iv, 3 mg/kg, Plasma concentration at 2.0 h, 3 mg/kg i.v.): 7.17 ng/mL
concentration at 0.5 h ([3]; ICR, mouse, plasma, po, 10 mg/kg, Plasma concentration at 0.5 h, 10 mg/kg p.o.): 53.4 ng/mL
concentration at 2 h ([3]; ICR, mouse, plasma, po, 10 mg/kg, Plasma concentration at 2.0 h, 10 mg/kg p.o.): 2.89 ng/mL
effect on ERK1/2 phosphorylation mediated by hD3R, compound alone (agonist mode) (hD3R [4]): no influence
competitive antagonism of ERK1/2 phosphorylation mediated by D3R (hD3R [4]): dose-dependently inhibit
inhibition of apomorphine-induced climbing (ICR mice [5]): dose-dependently inhibit
Ki (h5-HT6): 8.72 µM
Ki (hDAT): 6.1 µM
Ki (h5-HT1A): 0.579 µM
Ki (hH1): 5.2 µM
Ki (hD1): > 10 µM
serum prolactin level (mice [6]): nonsignificant serum prolactin change
Ki (hNET): > 10 µM
Ki (hD4): > 10 µM
Ki (h5-HT2C): 2.23 µM
improvement of D3R binding affinity versus the phenyl group (23g) (hD3R [7]): approximately 10 fold
Ki (hD3R [7]; Ki hD3, Table 6 selectivity profile): 0.0168 µM
Ki (hD3R [7]; [17]): 0.0139 ± 0.0034 µM
inhibition at 10 µM (hD3R [7]): 107.3 ± 0.3%
body weight / weight gain [8]: No influence on body weight
Catalepsy MED i.p. (minimum effective dose) (mice [9]): ≥240.0 mg/kg
Catalepsy peak effect (percent of cataleptic animals) (mice [9]): 0.0%
catalepsy under all tested doses (mice [9]): did not elicit catalepsy
effect on spontaneous locomotion (ICR mice [10]): no influences
Ki (h5-HT1B): 0.172 µM
acute toxicity / tolerance (mice [11]): dose-dependent lethal toxicity from 240 to 600 mg/kg
t1/2 ([12]; ICR mice, 10 mg/kg p.o., single dose, 10 mg/kg): 70.2 min
AUC [12, 18]: 326 ng·h/mL
Cmax [12, 18]: 567 ng/mL
MRT [12, 18]: 28.8 min
Tmax [12, 18]: 4.8 min
Vd [12, 18]: 4.44 L/kg
clearance [12, 18]: 153 mL/min/kg
half-life ([12]; ICR, mouse, plasma, iv, 3 mg/kg, 3 mg/kg i.v., single dose): 31.8 min
bioavailability ([12]; ICR, mouse, plasma, oral, 10 mg/kg): 8.7%
AUC [12, 19]: 94.4 ng·h/mL
Cmax [12, 19]: 78.8 ng/mL
MRT [12, 19]: 52.2 min
Tmax [12, 19]: 10.2 min
half-life ([12]; ICR, mouse, plasma, po, 10 mg/kg, 10 mg/kg p.o., single dose): 66 min
inhibition of MK-801-induced hyperactivity at 3 mg/kg (ICR mice [13]): did not show the inhibition activity

Cn1c2c(c3ccccc31)CN(CCCCNC(=O)c1ccc(-c3ccccc3)cc1)CC2 [36f]
IC50 (hERG channel; hERG IC50, patch clamp): > 40 µM
IC50 (hERG channel; [16]): 46.9 µM
Ki (hD2R [1]): > 10 µM
inhibition at 10 µM (hD2R [1]): -20.7 ± 4.9%
effect on the viability of HEK293T (HEK293T cells): less effects
effect on ERK1/2 phosphorylation mediated by hD2R, compound alone (agonist mode) (hD2R [2]): no functional affects
effect on ERK1/2 phosphorylation mediated by hD3R, compound alone (agonist mode) (hD3R [4]): no influence
competitive antagonism of ERK1/2 phosphorylation mediated by D3R (hD3R [4]): dose-dependently inhibit
effect on the viability of BV2 (BV2 cells): less effects
Ki (hD3R [7]; [17]): 0.0041 ± 0.0003 µM
inhibition at 10 µM (hD3R [7]): 104 ± 1.4%
Catalepsy MED i.p. (minimum effective dose) (mice [9]): ≥480.0 mg/kg
Catalepsy peak effect (percent of cataleptic animals) (mice [9]): 0.0%
catalepsy under all tested doses (mice [9]): did not elicit catalepsy
effect on spontaneous locomotion (ICR mice [10]): no influences
acute toxicity / tolerance (mice [11]): well tolerant
inhibition of MK-801-induced hyperactivity at 3 mg/kg (ICR mice [13]): reduced the distance of mice movement

CNCC[C@H](Oc1cccc2ccccc12)c1cccs1 [DLX, duloxetine, reference compound]
immobility time in the TST (ICR mice [14]): robust decrease
FST latency (ICR mice [15]): failed to prolong
immobility time of FST (ICR mice [15]): robust decrease
